Patent US7601838B2, “2-Alkyl/aryl sulphonyl-1,2,3,4-tetrahydro-9H-pyrido (3,4-b) indole-3-carboxylic acid esters/amides useful as antithrombotic agents” (Council of Scientific and Industrial Research, priority 2004, dated 2009)

Legend:
[1] = tested on: collagen and epinephrine induced thrombosis in mice; assay: Effect on mouse thrombosis: collagen and adrenaline induced pulmonary thromboembolism; format: in vivo; details: for protection against collagen and epinephrine induced thrombosis (in words): 30 μM/kg
Method: Pulmonary thromboembolism was induced by following a method of Diminno and Silver^(1). Test compounds (30 μM/Kg) or vehicle were administered orally 60 min prior to the thrombotic challenge. A mixture of collagen (150 μg/ml) and adrenaline (50 μg/mL) was administered by the rapid intravenous injection into the tail vein to induce hind limb paralysis or death. A group of 10 animals were used to evaluate the effect of test compound, while 5 mice were used to assess effect of a standard drug, aspirin and a group of vehicle treated (n=5) mice was also used each experiment.
% Protection was expressed as: […]
Ptest is the number of animals paralyzed/dead in the test compound-treated group, and Pcontrol is the number of animals paralyzed/dead in vehicle treated group.

[2] = tested on: mouse-tail Bleeding time; assay: Effect on mouse-tail bleeding time; details: mice
Method: The tail 2 mm from tip was incised and the blood oozed was soaked with filter paper till the bleeding stops. The time elapsed from the tip incision to the stoppage of bleeding was determined as the bleeding time. Test compound (30 μM/kg), aspirin or vehicle was given orally 60 min prior to the tail incision. Each group consisted of 5 mice.

[3] = tested on: stasis induced thrombosis in LPS treated rabbits; assay: Rabbit venous thrombosis model (stasis induced thrombosis in LPS treated rabbits); format: in vivo, New Zealand white strain rabbits
Method: (§1) [formula] 1.4 Evaluation of coagulation parameters: Blood was collected by cardiac puncture from ether-anaesthetized rat using a syringe containing 3.2% tri-sodium citrate (9:1, v/v). Plasma was obtained by centrifugation of citrated blood at 2500×g for 15 min at 20° C. Stock solutions of the test compounds were prepared freshly in DMSO and were diluted in DMSO. Thrombin time (TT), prothrombin time (PT) and activated partial thromboplastin time (aPTT) were evaluated according to manufacturer's instructions supplied with kits (Stago, France) and measured by Coagulometer (Stago, France)^(4). In each set of experiment effect of DMSO on these parameters was also assessed and was used to calculate change in TT, PT or aPTT. 1.5 Rabbit venous thrombosis model: Experiments were performed on New Zealand white strain rabbits (2-3 kg) either sex. Escherichia coli LPS strain 1055:B5 (Sigma Chemicals, USA) was injected intravenously via ear vein (1 μg/kg)^(5,6). Jugular veins on both sides were exposed and dissected free from surrounding tissue. Two loose surer were placed 1.5 cm apart and all collateral veins were ligated. Four hours after E. coli endotoxin injection (animal is watched for any signs of hypersensitivity reaction during this period), stasis was established and maintained for 45 min by tightening the two sutures. Ligated segments were removed and opened longitudinally and the thrombus was carefully removed and weighed. Heparin sodium (Beparine from beef intestinal mucosa ≧140 USP units/mg; Biological E. Limited, India) was given in doses of (0.5, 0.25, 0.1 mg/kg i.v., via ear vein) 5 min before stasis. 1.6 Effect of compound (i) on human platelet aggregation in vitro: Platelet aggregation study was done on human platelets following isolation of PRP from the human blood as described above (1.3). Aggregation was induced by collagen (10 μg/ml, 5 μg/ml), ADP (10 μM) and thrombin (0.5 U/ml). 2. Results: Effect of test compounds is indicated in the following table (1) against collagen and epinephrine induced thrombosis in mice, which is a primary screening model to detect antithrombotic efficacy of the test agents. At the same dose these compounds were also evaluated for their effect on the bleeding time in mouse (Table 1).
(§2) Effect on venous thrombosis model in rabbit: The selected compounds were evaluated at 10 μM/Kg and 30 μM/kg dose for their efficacy against stasis induced thrombosis in LPS treated rabbits. […] Ex vivo effect of selective compounds on rat platelet aggregation: Blood was collected in sodium citrate to obtain PRP and evaluate the ex vivo effect of selective compounds ((i), (ii), (iii) at 30 μM/kg administered by the ip route) against ADP, collagen, phorbol myristate ester (PMA) calcium ionophore (A23187), or thrombin induced aggregation. It was observed that all these compounds were consistent against collagen-induced platelet aggregation (Table 3). (iii) inhibited ADP (10 μM), collagen (10 μg/ml), PMA (1.5 μM), and thrombin (0.64 U/ml) induced platelet aggregation while no inhibition was found against calcium ionophore A23187 (2.5 μg/ml) induced platelet aggregation. […] Effect on clotting parameters: The selected compounds were also tested in vitro for their effect on thrombin time (TT), prothrombin time (PT) and activated partial thromboplastin time (aPTT) at 100 μg/ml and 200 μg/ml in vitro (Table 4). The test compounds at 100 μg/ml had no significant effect of on these parameters. Some effect was though seen on PT at 200 μg/ml concentration, but the concentration seems to be quite high.
Values are Mean±; Compound (i); n=2, Compound (ii); n=4, Compound (iii), n=4 [n is no. of observations in 2 or more animals at 10 μM/Kg or 30 μM/Kg p.o. administered 2 h prior to the stasis] or vehicle control [n=10 observations in five animals]. In heparin treated group n=6 observations for each dose in nine animals.

[4] = tested on: rat platelet aggregation; assay: Ex vivo effect on rat platelet aggregation (PRP, aggregometer); format: cell-based, Sprague Dawley rats; details: 30 μM/kg ip; for % Aggregation / % Inhibition: rat PRP; for inhibition of calcium ionophore A23187 induced platelet aggregation (in words): A23187 (2.5 μg/ml); for inhibition of calcium ionophore A23187 induced platelet aggregation (in words) / inhibition of ADP induced platelet aggregation (in words) / inhibition of PMA induced platelet aggregation (in words) / inhibition of collagen induced platelet aggregation (in words) / inhibition of thrombin induced platelet aggregation (in words): rat; for inhibition of ADP induced platelet aggregation (in words): ADP (10 μM); for inhibition of PMA induced platelet aggregation (in words): PMA (1.5 μM); for inhibition of collagen induced platelet aggregation (in words): collagen (10 μg/ml); for inhibition of thrombin induced platelet aggregation (in words): thrombin (0.64 U/ml)
Method: Sodium citrate: The blood was centrifuged at 275×g for 20 min and the platelet rich plasma (PRP) was collect. The remaining blood was further centrifuged at 1500 g for 15 min at 20° C. to obtain platelet poor plasma (PPP). The platelet count in the PRP was adjusted to 2×10^8 cells/ml by using PPP. Adenosine-5′-diphosphate (ADP), thrombin, collagen, calcium ionophore A23187 or phorbol myristate ester (PMA) induced aggregation was monitored on a dual channel aggregometer (Chrono-log, USA). The test compound was incubated with PRP or 5 min before the addition of aggregation on inducing agent. Percent inhibition of the test compounds at various concentrations was calculated as follows: […]
as §2

[5] = tested on: thrombin time (TT), prothrombin time (PT) and activated partial thromboplastin time (aPTT); assay: Evaluation of coagulation parameters (TT, PT, aPTT) in rat plasma in vitro; format: biochemical
Method: as §1, §2

[6] = 30 μM/kg orally 60 min prior to collagen + adrenaline challenge
[7] = 30 μM/Kg dose p.o. 2 h prior to the stasis
[8] = 10 μM/Kg dose p.o. 2 h prior to the stasis

SMILES	Antithrombotic activity (AT) (% protection) [1, 6]	protection against collagen and epinephrine induced thrombosis (in words) [1]	% Reduction (thrombus wt.) [3, 7] [%]	Thrombus wt. [3, 7]	% Aggregation ([4]; A23187 (2.5 μg/ml) induced) [%]	% Inhibition ([4]; A23187 (2.5 μg/ml) induced) [%]	inhibition of calcium ionophore A23187 induced platelet aggregation (in words) [4]	% Aggregation ([4]; ADP (10 μM) induced) [%]	% Inhibition ([4]; ADP (10 μM) induced) [%]	inhibition of ADP induced platelet aggregation (in words) [4]	% Aggregation ([4]; Collagen (10 μg/ml) induced) [%]	% Inhibition ([4]; Collagen (10 μg/ml) induced) [%]	% Aggregation ([4]; PMA (1.5 μM) induced) [%]	% Inhibition ([4]; PMA (1.5 μM) induced) [%]	inhibition of PMA induced platelet aggregation (in words) [4]	% Aggregation ([4]; Thrombin (0.64 U/ml) induced) [%]	% Inhibition ([4]; Thrombin (0.64 U/ml) induced) [%]	inhibition of collagen induced platelet aggregation (in words) [4]	inhibition of thrombin induced platelet aggregation (in words) [4]	Activated partial thromboplastin time (aPTT) % Change ([5]; 100 μg/ml in vitro) [%]	other results
COC(=O)C1Cc2c([nH]c3ccccc23)CN1S(=O)(=O)c1ccccc1C(F)(F)F (racemic) [j, 2[2-trifluoromethylbenzenesulfonyl]-1,2,3,4,-tetrahydro-9H-pyrido[3,4-b]in-dole-3-carboxylic acid ester]	56%	–	–	–	–	–	–	–	–	–	–	–	–	–	–	–	–	–	–	–	Bleeding time (BT) % increase (1 hr) ([2]; 30 μM/kg orally 60 min prior to tail incision): 150%
NC(=O)C1Cc2c([nH]c3ccccc23)CN1S(=O)(=O)c1ccc2ccccc2c1 (stereo not shown) [Compound (iii), 2-[2-naphthalenesulfonyl]-1,2,3,4,-tetrahydro-9H-pyrido[3,4-b]indole-3-carboxylic acid amide]	70 ± 0 (n = 3) %	exhibited significant protection	57	11 ± 5	57 ± 6	−25 ± 2	no inhibition	2 ± 0.4	94 ± 0.2	inhibited	2.5 ± 0	47 ± 13	38 ± 13	32 ± 5	inhibited	28 ± 3	40 ± 6	inhibited	inhibited	11 ± 4	Prothrombin time (PT) % Change ([5]; 100 μg/ml in vitro): −0.24 ± 0.8%; Thrombin time (TT) % Change ([5]; 100 μg/ml in vitro): 10 ± 4%; Activated partial thromboplastin time (aPTT) % Change ([5]; 200 μg/ml in vitro): 10 ± 8%; Prothrombin time (PT) % Change ([5]; 200 μg/ml in vitro): 9 ± 0.2%; Thrombin time (TT) % Change ([5]; 200 μg/ml in vitro): 6 ± 1%
COC(=O)C1Cc2c([nH]c3ccccc23)CN1S(=O)(=O)c1ccc(C)cc1 (racemic) [n, 2[4-methylbenzenesulfonyl]-1,2,3,4,-tetrahydro-9H-pyrido[3,4-b]indole-3-carboxylic acid ester]	–	–	–	–	–	–	–	–	–	–	–	–	–	–	–	–	–	–	–	–	inhibition of thrombus formation (in words) ([3]; evaluated at 10 μM/Kg and 30 μM/kg dose): inhibited thrombus formations only at 30 μM/Kg
CC(=O)Oc1ccccc1C(=O)O [Aspirin, reference compound]	–	–	–	–	–	–	–	–	–	–	–	–	–	–	–	–	–	–	–	–	Antithrombotic activity (AT) (% protection) ([1]; 30 mg/Kg (aspirin, standard drug)): 38 ± 3 (n = 24) %; Bleeding time (BT) % increase (1 hr) ([2]; 30 mg/Kg (aspirin)): 125 ± 6 (n = 30) %
COc1ccc(S(=O)(=O)N2Cc3[nH]c4ccccc4c3CC2C(N)=O)cc1 (stereo not shown) [Compound (ii), 2[-4-methoxybenzenesulfonyl]-1,2,3,4,-tetrahydro-9H-pyrido[3,4-b]indole-3-carboxylic acid amide]	70 ± 10 (n = 3) %	exhibited significant protection	88	5 ± 4	51 ± 5	54 ± 4	inhibited	35 ± 5	26 ± 10	inhibited	5 ± 1	79 ± 7	44 ± 12	26 ± 0.3	inhibited	44 ± 10	4 ± 10	inhibited	did not inhibit	13 ± 7	% Reduction (thrombus wt.) [3, 8]: −67%; Thrombus wt. [3, 8]: 79 ± 9; Prothrombin time (PT) % Change ([5]; 100 μg/ml in vitro): 9 ± 5%; Thrombin time (TT) % Change ([5]; 100 μg/ml in vitro): 9 ± 5%; Activated partial thromboplastin time (aPTT) % Change ([5]; 200 μg/ml in vitro): 11 ± 4%; Prothrombin time (PT) % Change ([5]; 200 μg/ml in vitro): 14 ± 7%; Thrombin time (TT) % Change ([5]; 200 μg/ml in vitro): 9 ± 4%
COC(=O)C1Cc2c([nH]c3ccccc23)CN1S(C)(=O)=O (racemic) [k, 2[methylsulfonyl]-1,2,3,4,-tetrahydro-9H-pyrido[3,4-b]indole-3-carboxylic acid ester]	50%	–	–	–	–	–	–	–	–	–	–	–	–	–	–	–	–	–	–	–	–
